According to patent US20250275943A1, “COMPOSITION FOR CANCER DIAGNOSIS TARGETING TUMOR AND/OR TUMOR MICROENVIRONMENT AND USE THEREOF” (Korea University Research and Business Foundation, priority 2024, published 2025):
Read-outs that look alike come from different tables or passages of the source.

Experiments:
[1] = Mouse tissue staining experiment, fluorescence of extracted organs; conditions: normal mouse, organs extracted 4 hours after injection; FIG. 9
Source text: (§1) Each graph represents the fluorescence signal of each organ.

[2] = test system: A549 cancer cells, which do not express folate receptors, and H522 cancer cells, which express folate receptors; experiment: Fluorescent contrast observation of cancer cells with and without folate receptor expression; type: cell-based; conditions: A549 (no folate receptors) vs H522 (folate receptors); FIG. 5A, 5B
Source text: Accordingly, it was identified that FMK-2 had no cytotoxicity.

[3] = mouse, in vivo
Source text: as §1

Row | Structure (SMILES) | fluorescence signal of each organ [1] | fluorescence expression in cancer cells depending on folate receptor expression [2] | fluorescence signal of each organ [3]
1 | CC1(C)C(/C=C/C2=C(Cl)C(=C/C=C3/N(CCC(=O)O)c4ccc(S(=O)(=O)O)cc4C3(C)C)/CCC2)=[N+](CCC(=O)O)c2ccc(S(=O)(=O)[O-])cc21 [Compound 1, 3-(2-((E)-2-((E)-3-(2-((E)-1-(2-carboxyethyl)-3,3-dimethyl-5-sulfoindolin-2-ylidene)ethylidene)-2-chlorocyclohex-1-en-1-yl)vinyl)-3,3-dimethyl-5-sulfo-3H-indol-1-ium-1-yl)propanoate] | signals were higher in the liver and kidneys compared to other organs | – | –
2 | CC1(C)C(/C=C/C2=C(Cl)C(=C/C=C3/N(CCC(=O)NC4O[C@@H](CO)[C@H](O)[C@@H](O)[C@H]4O)c4ccc(S(=O)(=O)O)cc4C3(C)C)/CCC2)=[N+](CCC(=O)NC2O[C@H](CO)[C@@H](O)[C@H](O)[C@@H]2O)c2ccc(S(=O)(=O)O)cc21 (stereo partly drawn) [Compound 2, 2-((E)-2-((E)-2-chloro-3-(2-((E)-3,3-dimethyl-1-(3-oxo-3-(((3R,4R,5R,6S)-3,4,5-trihydroxy-6-(hydroxymethyl)tetrahydro-2H-pyran-2-yl)amino)propyl)-5-sulfoindolin-2-ylidene)ethylidene)cyclohex-1-en-1-yl)vinyl)-3,3-dimethyl-1-(3-oxo-3-(((3S,4S,5S,6R)-3,4,5-trihydroxy-6-(hydroxymethyl)tetrahydro-2H-pyran-2-yl)amino)propyl)-5-sulfo-3H-indol-1-ium] | – | expressed fluorescence in cancer cells regardless of whether folate receptors were expressed | overall signals were identified in all organs
3 | CC1(C)C(/C=C/C2=C(SCCOCCOCCNC(=O)CCC(NC(=O)c3ccc(NCc4cnc5nc(N)nc(O)c5n4)cc3)C(=O)O)C(=C/C=C3/N(CCC(=O)O)c4ccc(S(=O)(=O)O)cc4C3(C)C)/CCC2)=[N+](CCC(=O)O)c2ccc(S(=O)(=O)[O-])cc21 (stereo not shown) [Compound 4, 2-((E)-2-((E)-2-((1-(4-(((2-amino-4-oxo-1,4-dihydropteridin-7-yl)methyl)amino)phenyl)-3-carboxy-1,6-dioxo-10,13-dioxa-2,7-diazapentadecan-15-yl)thio)-3-(2-((E)-1-(2-carboxyethyl)-3,3-dimethyl-5-sulfoindolin-2-ylidene)ethylidene)cyclohex-1-en-1-yl)vinyl)-1-(2-carboxyethyl)-3,3-dimethyl-5-sulfo-3H-indol-1-ium] | signals were identified in the kidneys and small intestine | – | –
